{"source": "patent US20250114313A1", "about": "“OLIGO-BENZAMIDE ANALOGS AND THEIR USE IN CANCER TREATMENT” (BOARD OF REGENTS, THE UNIVERSITY OF TEXAS SYSTEM, priority 2022, published 2025)", "key": {"[1]": {"target": "T1, lysosomal acid lipase (LAL) protein (Homo sapiens, UniProt P38571)", "T1 construct": "heat stability of LAL or vinculin protein in SUM-159 cells; endogenous in cells; host or cells: SUM-159", "assay": "Cellular thermal shift assay, LAL", "type": "binding", "details": "10 μM, SUM-159 cells", "description": "Cellular Thermal Shift Assay (CETSA): Cellular Thermal Shift Assays were performed as described previously^36. Briefly, cells were treated with DMSO or 10 μM ERX-41 for 30 min, then trypsinized, pelleted and resuspended in PBS supplemented with Halt protease inhibitor cocktail (Thermo Scientific), with DMSO or 10 μM ERX-41. Resuspended cells were aliquoted into PCR strips. The cells were incubated in thermal cycler (Bio-rad) at gradient temperatures for 3 minutes, followed by incubation at 25° C. for 3 minutes. Then cells were snap-frozen in liquid nitrogen. Freeze-thaw the cells twice using liquid nitrogen. Then transfer samples into Eppendorf tubes, followed by briefly vortex and centrifuge at 20,000 g for 20 minutes at 4° C. Mix cleared cell lysates with ⅓ volume of 4× Laemmli sample buffer. After boiling, cell lysates were resolved in SDS-PAGE followed by western blotting."}, "[2]": {"tested_on": "p-PERK, IRE1α, eIF2α, CHOP in TNBC cells", "assay": "Western blotting of UPR proteins, TNBC cells", "type": "cell-based, Human", "details": "1 μM", "description": "Western blotting: Whole cell lysates from breast cancer cells were prepared with 2× sample buffer (60 mM Tris-HCl, pH 6.8, 2% sodium dodecyl sulfate, 10% glycerol), and before loading mixed with loading buffer (5% 2-mercaptoethanol, 0.1% bromophenol blue) and boiled for denaturation, as previously described.^33 Proteins were separated by SDS-PAGE and subjected to Western analysis using antibodies. To detect nascent translated proteins, puromycin (final concentration 10 μg/mL) was added into cell plates 30 minutes before harvesting cells. Then samples were subjected to the Western blotting. Nascent proteins were detected by anti-puromycin antibody."}, "[3]": {"tested_on": "D2A1 xenografts", "assay": "D2A1 syngeneic tumor model", "type": "in vivo, BALB/c mice", "details": "10 mg/kg daily", "description": "Animal Studies: All animal experiments were performed using UTHSA and UTSW IACUC approved protocols. For cell based xenograft tumor assays, TNBC cells (2×10^5-2×10^6) were mixed with an equal volume of matrigel and implanted in the mammary fat pads of 6-week-old female athymic nude mice as described^33. BALB/c mice were used for D2A1 syngeneic model. Once tumors reached measurable size, mice were divided into control (vehicle) and ERX-41 (10 mg/kg/oral) treatment groups. Mice bearing TNBC PDX tumors were purchased from Jackson laboratory (TM00089; TM00096; TM00098). TNBC PDX line UTPDX0001 establishment was earlier described^38. WHIM-20 ER+PDX model was purchased from Horizon Labs. OCa-PDX-38 was received from UTHSA ObGyn tissue procurement core. When tumors reached ˜750 mm^3 they were dissected into 2 mm^3 pieces and implanted into the mammary fat pads of 6 weeks old female SCID or NSG mice. When the tumor volume reached ˜200 mm^3, mice were randomized for treatment. The mice were monitored daily for adverse toxic effects and tumor volume was measured every 3-4 days using calipers. For establishing ES2 tumors, ES2/GFP/LUC cells were injected i.p. and tumors were measured twice a week using Xenogen in vivo imaging system. […] The mice were monitored daily for adverse toxic effects. […] The sections were scored by two independent evaluators blinded to the patient's clinical status."}, "[4]": {"target": "T2, LAL lipase activity (Homo sapiens, UniProt P38571)", "T2 construct": "heat stability of LAL or vinculin protein in SUM-159 cells; endogenous in cells; host or cells: SUM-159", "T2 sequence (P38571 77-399)": "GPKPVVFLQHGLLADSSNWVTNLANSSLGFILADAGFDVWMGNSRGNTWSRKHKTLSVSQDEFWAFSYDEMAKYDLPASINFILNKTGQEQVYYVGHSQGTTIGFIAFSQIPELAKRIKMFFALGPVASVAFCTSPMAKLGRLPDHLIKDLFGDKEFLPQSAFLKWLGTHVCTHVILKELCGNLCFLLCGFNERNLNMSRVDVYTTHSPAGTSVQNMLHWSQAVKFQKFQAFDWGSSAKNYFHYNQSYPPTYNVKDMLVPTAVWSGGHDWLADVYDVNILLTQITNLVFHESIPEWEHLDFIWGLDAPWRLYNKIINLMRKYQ", "assay": "Lipase activity assay (4-MUP), SUM-159 cell lysate", "type": "biochemical", "details": "SUM-159 cells; 30 μM", "description": "Lipase activity assay: Lipase activity assays were performed as described previously (Dairaku, et al)^37. Briefly, a 0.345 mM substrate solution was prepared from 1.2 mL of 13.3 mM 4-MUP and 42 mL of 100 mM sodium acetate buffer pH 4.0, 1.0% (v/v) Triton X-100 and 3.0 mL of 0.5% (w/v) cardiolipin. For the enzyme reaction, 50 μL of the substrate in buffer solution, 40 μL of diluted cell lysate and 10 μL of DMSO or 30 μM Lalistat2 or 30 μM ERX-41 were combined in a black 96-well plate. The plates were sealed with an adhesive aluminum film and incubated in a 37° C. incubator for 1 h. The reactions were terminated using 200 μL of 150 mM EDTA at pH 11.5. The fluorescence of the plates were read immediately with synergy H1 fluorescence microplate reader (BioTek) using a 365-nm excitation filter and a 450-nm emission filter. The LIPA lipase activity was calculated by subtracting the enzymatic activity of the inhibited (with Lalistat2) reaction from that of the uninhibited (without Lalistat2) reaction."}, "[5]": {"tested_on": "normal human mammary epithelial cells (HMEC)", "assay": "Cell viability (WST, MTT, CellTiter-Glo), HMEC", "type": "cell-based", "details": "at >1 μM, MTT or CellTiter-Glo", "description": "(§1) Cell viability assays: Cells were seeded in 96-well plates (2×10^3 cells/well) one day before the treatment. Cells were treated with varying concentrations of ERX-41 or ERX-11 analogs for 3-6 days. Then effects of ERX-41 or ERX-11 analogs on cell viability were measured in triplicate or sextuplicate with multiple biological replicates using the WST-1 (Promega), MTT as previously described^33 or CellTiter-Glo 2.0 (Promega) assays."}, "[6]": {"tested_on": "21 human preclinical TNBC cell line models", "assay": "WST-1 assay, TNBC cell lines", "type": "cell-based", "details": "21 TNBC cell lines, all six molecular subtypes, read-out: anti-proliferative IC50, WST-1", "description": "as §1"}}, "note": "Entries after “also recorded” stand apart in the source; their conditions may differ."}
{"smiles": "CC(C)COc1cc(C(=O)Nc2ccc(C(=O)N[C@H]3CC[C@H](C)CC3)cc2OCC(C)C)ccc1NC(=O)c1ccc([N+](=O)[O-])c(OCCO)c1", "note": "[ERX-41]", "values": [{"measurement": "thermal stability of LAL", "setting": "[1]", "result": "stabilize the thermal stability of LAL"}, {"measurement": "induction of ER stress / UPR proteins", "setting": "[2]; p-PERK, IRE1α, eIF2α, CHOP", "result": "induces ER stress and downstream UPR pathways"}, {"measurement": "PERK activation and peIF2α, parental SUM-159", "setting": "[2]; western", "result": "activates PERK"}, {"measurement": "growth of D2A1 xenografts", "setting": "[3]", "result": "significantly reduce the growth"}, {"measurement": "lipase activity of LIPA", "setting": "[4]", "result": "no inhibition of lipase activity"}, {"measurement": "effect on normal human mammary epithelial cells", "setting": "[5]", "result": "non-toxic; also recorded: did not have significant effect"}, {"measurement": "IC50", "setting": "[6]", "result": "< 0.5", "unit": "µM"}]}
